According to PubChem BioAssay (NCI):
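Five compound concentrations were applied to cells in 96-well plates for 48 hours; endpoints were derived by simple linear interpolation of the resulting dose-response curve. GI50 = concentration required for 50% inhibition of growth. TGI is the concentration that stops growth completely.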

Experiments:
Experiment in all cases: growth of human tumour cells (NCI), 48 h
[1] = tested on: MOLT-4 leukemia
[2] = tested on: OVCAR-3 ovarian
[3] = tested on: HOP-92 NSCLC
[4] = tested on: MALME-3M melanoma
[5] = tested on: TK-10 renal
[6] = tested on: A549 NSCLC
[7] = tested on: CCRF-CEM leukemia
[8] = tested on: SN12C renal
[9] = tested on: M14 melanoma
[10] = tested on: T-47D breast

Row | Compound | TGI [1] | TGI [2] | TGI [3] | TGI [4] | TGI [5] | TGI [6] | TGI [7] | TGI [8] | TGI [9] | GI50 [1] | GI50 [2] | GI50 [5] | GI50 [6] | GI50 [9] | GI50 [3] | GI50 [4] | GI50 [7] | GI50 [8] | GI50 [10] | TGI [10]
1 | O=S(=O)(/C=C/CS(=O)(=O)c1ccccc1)c1ccccc1 | 74 µM | 84.7 µM | > 100 µM | > 100 µM | > 100 µM | 60.8 µM | > 100 µM | 88 µM | 67.3 µM |  |  |  |  |  |  |  |  |  |  | 
2 | COc1cc2c(cc1OC)[C@@H](Nc1ccc(F)cc1)C1COC(=O)[C@@H]1C2c1cc(OC)c(O)c(OC)c1 (stereo partly drawn) | 0.21 µM | > 100 µM |  | > 88.8 µM | 63 µM | 15 µM | 0.846 µM | 13.7 µM | 10.5 µM |  |  |  |  |  |  |  |  |  |  | 
3 | CNC(=O)OCc1c2ccncc2c(C)c2c1[nH]c1ccc(OC)cc12 | 0.516 µM | > 100 µM | 0.618 µM | 1.87 µM | > 100 µM | > 100 µM | 1.29 µM | > 100 µM | 1.81 µM |  |  |  |  |  |  |  |  |  |  | 
4 | COc1cnc2c(c1)C(=O)c1c-2n(CCCNC2=NCCS2)c(=O)c2cc(Cl)ccc12 | 1.71 µM | 3.07 µM |  |  | 3.09 µM | 2.51 µM |  |  | 1.81 µM | 0.0454 µM | 1.35 µM | 1.66 µM | 1.2 µM | 0.0829 µM |  |  |  |  |  | 
5 | O=C1/C(=N\O)S(=O)(=O)c2ccccc21 | > 100 µM |  | > 100 µM | > 100 µM | > 100 µM | > 100 µM | > 100 µM | > 100 µM | > 100 µM |  |  |  |  |  |  |  |  |  |  | 
6 | CC(=O)[CH-]C(=O)c1ccccc1.CC(=O)[CH-]C(=O)c1ccccc1.CC(=O)[CH-]C(=O)c1ccccc1.[In+3] |  | > 100 µM | 49.8 µM | 84.1 µM | > 100 µM | > 100 µM | 49.4 µM | > 100 µM | > 100 µM |  | 78 µM | > 100 µM | 48.8 µM | 26.8 µM | 17.8 µM | 25.2 µM | 11.6 µM | 21.2 µM |  | 
7 | Cc1nn(-c2ccc(Cl)cc2)c2nc3c(nc12)C(=O)C(=O)c1ccccc1-3 | > 100 µM | > 100 µM | 30.8 µM | 3.86 µM |  | 4.08 µM |  | 12.6 µM | 4.1 µM | > 100 µM | 3.48 µM |  | 2.06 µM | 1.89 µM | 0.18 µM | 1.43 µM |  | 2.7 µM | 12.1 µM | 29.9 µM
8 | Cc1[nH]c2ccc(F)cc2c1-c1nc2c3cccnc3c3ncccc3c2[nH]1 | > 100 µM | > 100 µM |  | > 100 µM | > 100 µM | > 100 µM | > 100 µM | > 100 µM | > 100 µM | 0.298 µM | 0.268 µM | 0.46 µM | 0.701 µM | 0.278 µM |  | 0.283 µM | 0.193 µM | 0.403 µM | 0.357 µM | > 100 µM
9 | O=C(O)c1nc(-c2ccc(Cl)c(Cl)c2)nc2ccc(Cl)cc12 | > 100 µM | > 100 µM |  | > 100 µM | > 100 µM | > 100 µM | > 10 µM | > 100 µM |  |  |  |  |  |  |  |  |  |  |  | 
10 | CCOC(=O)c1cc2c(n1Cc1cc(OC)c(OC)c(OC)c1)-c1oncc1CCC2 | > 44.8 µM | 0.399 µM |  | > 52.3 µM | > 100 µM | 65.4 µM | 5.38 µM | > 40.1 µM |  | 0.406 µM | 0.0901 µM | 64.9 µM | 0.234 µM |  |  | 0.061 µM | 0.318 µM | 0.628 µM | 0.373 µM | 53.4 µM
11 | COc1ccc(N(/C=C/C(=O)C(F)(F)F)CC(=O)c2ccc(F)cc2)cc1 | 43.6 µM | 48.6 µM |  | 41.4 µM | 96.4 µM | > 100 µM | 95.1 µM | 33.8 µM | 56.7 µM | 16.1 µM | 21.2 µM | 42.1 µM | 32 µM | 20.6 µM |  | 16.5 µM | 19.7 µM | 14.7 µM | 32.1 µM | > 100 µM
12 | CC(C)(c1ccccc1)c1ccc(Oc2ccc(C#N)c(C#N)c2)cc1 | > 100 µM |  | > 100 µM | > 100 µM | > 100 µM | > 100 µM | > 100 µM | > 100 µM | > 100 µM |  |  | > 100 µM |  |  |  | > 100 µM |  | > 100 µM |  | 
13 | Cn1cc(-c2csc(-c3cn(CCCN4CCCCC4)c4ccccc34)n2)c2cccnc21 |  | 3.14 µM | 35.2 µM | 3.19 µM | 2.96 µM | 3.6 µM |  | 3.31 µM | 3.38 µM |  | 1.7 µM | 1.6 µM | 1.97 µM | 1.82 µM | 13.3 µM | 1.61 µM |  | 1.79 µM | 17.4 µM | 51.3 µM
14 | CCc1ccccc1NC(=O)/C(N=O)=C(/C)O | > 100 µM | > 100 µM |  | > 100 µM | > 100 µM | > 100 µM | > 100 µM | > 100 µM | > 100 µM |  |  |  |  |  |  |  |  |  |  | 
15 | O=C(NC(=Nc1ccccc1)SCCSC(=Nc1ccccc1)NC(=O)c1cccs1)c1cccs1 | > 100 µM | > 100 µM | 46.1 µM | > 100 µM | > 100 µM | > 100 µM | > 100 µM | > 100 µM | > 100 µM |  |  |  |  |  |  |  |  |  |  | 
16 | O=C(N/C(=C\c1ccc(/C=C(\NC(=O)c2ccccc2)c2nc3ccccc3[nH]2)cc1)c1nc2ccccc2[nH]1)c1ccccc1 | > 100 µM | > 100 µM | > 100 µM | > 100 µM | > 100 µM | > 100 µM | > 100 µM | > 100 µM | > 100 µM |  |  |  |  |  |  |  |  |  |  | 
17 | COc1ccc(CC2(Cc3ccc(OC)cc3)CCOC2=O)cc1 | > 100 µM | > 100 µM | > 100 µM | > 100 µM | > 100 µM | > 100 µM | > 100 µM | > 100 µM | > 100 µM |  |  |  |  |  |  |  |  |  |  | 
18 | CCOc1ccc(NC(=O)C(=O)C(C(=O)c2ccc3ccccc3c2)C2OC(=O)c3ccccc32)cc1 (stereo not drawn) | 43.7 µM | 86.8 µM | 68.3 µM | 77.4 µM | > 100 µM | > 100 µM | 57.7 µM | 44 µM | 42.2 µM |  |  |  |  |  |  |  |  |  |  | 
19 | Oc1c(Cl)c(Cl)c(O)c2c1CCCC2 |  |  | 4.85 µM | 9.48 µM | 9.14 µM | 72.6 µM | 5.05 µM | 30.2 µM | 32.5 µM |  |  |  |  |  |  |  |  |  |  | 
